Article PMC2375353, “Effective treatment of experimental U-87MG human glioblastoma in nude mice with a targeted cytotoxic bombesin analogue, AN-215” (British Journal of Cancer, 2002)

Experiments:
[1] = system: BN receptor-positive organs; test: GRP-stimulated serum gastrin release; format: in vivo, nude mice; conditions: for Effect on GRP-stimulated gastrin release: experiment 1, after i.v. stimulation with GRP(14-27); for GRP(14-27)-evoked serum gastrin level: experiment 1 end, 5 min after i.v. 2 μg GRP(14-27), radioimmunoassay, control 223.0±17.9, mean±s.e.
Description: General toxicity was evaluated on the basis of mortality rate and changes in BW. Toxicity to BN receptor-positive organs was assessed by measuring gastrin release in response to GRP stimulation ([Plonowski et al, 2000]). […] Serum gastrin concentrations were measured by double-antibody radioimmunoassay with a kit provided by ICN Pharmaceuticals Diagnostic Division (Orangeburg, NY, USA). The interassay variation was 10.6%, and the intraassay variation was 6%.

[2] = system: U-87MG human glioblastomas in nude mice; test: Histology of U-87MG tumours (experiment 1); format: in vivo, human tumour in nude mice; conditions: for Extent of necrosis vs control / % area of necrosis / Ratio of apoptotic to mitotic indices / Apoptotic index / Mitotic index: experiment 1 tumours; for % area of necrosis: 150 nmol kg^-1 i.v. x4, control 60.0±5.8; for % area of necrosis / Ratio of apoptotic to mitotic indices / Apoptotic index / Mitotic index / Number of AgNORs per cell: mean±s.e.; for Ratio of apoptotic to mitotic indices: control 0.38±0.06; for Apoptotic index / Mitotic index: per 1000 cells; for Apoptotic index: control 5.9±0.7; for Mitotic index: control 16.6±1.4; for Number of AgNORs per cell: silver staining, 50 cells per tumour, control 4.93±0.18
From the text: Samples of tumour tissues were fixed in 10% buffered formalin. The specimens were embedded in Paraplast (Oxford Labware, St. Louis, MO, USA). Six μm thick sections were cut and stained with haematoxylin-eosin. Mitotic and apoptotic cells were counted in nine standard high power microscopic fields containing an average of 330 cells, and their numbers per 1000 cells were accepted as the mitotic and apoptotic indices, respectively. To eliminate errors caused by variances in thickness of slides and cellularity of areas investigated, the ratio of apoptotic to mitotic indices was calculated in each tumour. For the determination of the extent of necrosis in tumours, the crossing points of a microscope ocular net that coincided with necrosis in the slide made at the largest cross-section of each tumour were counted. The ratio of these points to the number of all points above the tumour represented the percentage area of necrosis. […] NORs are parts of DNA closely associated with nucleoli and encode for ribosomal RNA. They are also associated with argyrophylic proteins and thus can be visualised by silver staining. The amount of AgNORs is a good indicator of cell proliferation ([van Diest et al, 1998]). The silver-stained black dots in 50 cells of each tumour were counted and the AgNOR number per cell was calculated. The data were evaluated by one way analysis of variance (ANOVA) and the treated groups compared to the control by Dunnett's test.

[3] = system: hGRPR/BRS-1; test: RT-PCR of hGRPR/BRS-1 mRNA in U-87MG tumours; format: in vivo, human; conditions: experiment 1 tumours; normalised vs hGAPDH; control 15.1±1.5; change not significant
Description: (§1) Total RNA was extracted from frozen tissue samples by using RNAzolB (Tel-Test, Friendswood, TX, USA) according to the manufacturer's instructions. Concentrations of total RNA were calculated by measuring the OD260 value. Total RNA (4 μg) was subjected to electrophoresis for 2 h at 70 V in 10 μl of sample buffer containing 1× MOPS buffer (pH 6.5), 6.4% formaldehyde, 48% deionized formamide, 0.25% w v^−1 bromophenol blue, 0.05% glycerol and 0.25 mg ml^−1 ethidium bromide. The RNA gel contained 1.4% agarose, 1×MOPS (pH 6.5) and 1.73% formaldehyde.
(§2) The RT–PCR was performed using Gene Amp RNA Core Kit (Perkin-Elmer, Foster City, CA, USA). To avoid genomic DNA contamination, all samples were subjected to DNase digestion before RT–PCR. RNA (2 μg) was treated with 0.3 unit of RQ1 RNase-free DNase (Promega, Madison, WI, USA) at 37°C for 30 min in 19 μl of mixture containing 5 mM MgCl2, 1× PCR buffer, 1 mM of each dNTP, 1 unit RNase inhibitor and 2.5 μM random hexamers. The reaction was terminated by enzyme denaturation at 99°C for 5 min. […]
(§3) The PCR amplification of the cDNAs for human glyceraldehyde-3-phosphate dehydrogenase (hGAPDH), GRP receptor (hGRPR, BRS-1) and neuromedin-B receptor (hNMBR, BRS-2) was performed as follows. […] The number of cycles was determined in preliminary experiments to be within the exponential range of PCR amplification.

[4] = system: hNMBR/BRS-2; test: RT-PCR of hNMBR/BRS-2 mRNA in U-87MG tumours; format: in vivo, human; conditions: experiment 1 tumours; normalised vs hGAPDH; control 7.6±3.5
Description: as §1, §2, §3

COc1cccc2c1C(=O)c1c(O)c3c(c(O)c1C2=O)C[C@@](O)(C(=O)CO)C[C@@H]3O[C@H]1C[C@H](N2C=CCC2)[C@H](O)[C@H](C)O1 [AN-201, 2-pyrrolino-doxorubicin] was tested, and the “Effect on GRP-stimulated gastrin release” value [1] was “Neither AN-215 nor AN-201 affected GRP-stimulated gastrin release”, the “GRP(14-27)-evoked serum gastrin level” value [1] was 251.5 ± 22.1 pg/mL and the “Extent of necrosis vs control” value [2] was “only a slight and not significant change in necrosis”. For the same molecule, the “% area of necrosis” value [2] was 69.6±7.0%, the “Ratio of apoptotic to mitotic indices” value [2] was 0.36±0.04 and the Apoptotic index [2] was 5.3±0.6. For the same molecule, the Mitotic index [2] was 15.2±1.5, the “Number of AgNORs per cell” value [2] was 4.31±0.09 and the “hGRPR/BRS-1 mRNA expression” value [3] was 21.6±3.4 a.u. For the same molecule, the “hNMBR/BRS-2 mRNA expression” value [4] was 10.9±3.6 a.u.
With “Gln-Trp-Ala-Val-Gly-His-Leu-ψ(CH2-NH)-Leu-NH2 [AN-215]” the “Damage to gastrointestinal cells” value ([1]; GRP-stimulated gastric secretion, this study and also ref Plonowski et al, 2000) was “no specific damage to the gastrointestinal cells”, the “Effect on GRP-stimulated gastrin release” value [1] was “Neither AN-215 nor AN-201 affected GRP-stimulated gastrin release” and the “GRP(14-27)-evoked serum gastrin level” value [1] was 257.9 ± 11.6 pg/mL. The “Extent of necrosis vs control” value [2] was “significantly larger than in the controls”, the “% area of necrosis” value [2] was 81.7±6.7 % and the “Ratio of apoptotic to mitotic indices” value [2] was 0.85±0.25. For the same molecule, the Apoptotic index [2] was 6.2±0.8, the Mitotic index [2] was 10.9±2.2 and the “Number of AgNORs per cell” value [2] was 4.16±0.12. For the same molecule, the “hGRPR/BRS-1 mRNA expression” value [3] was 25.4±5.1 a.u and the “hNMBR/BRS-2 mRNA expression” value [4] was 3.3±1.0 a.u.
